Measurements as given in patent US20220396567A1, “SUBSTITUTED PYRIMIDINE FOR THE TREATMENT AND PROPHYLAXIS OF HEPATITIS B VIRUS INFECTION” (Hoffmann-La Roche Inc., priority 2019, published 2022).

System: HBV
Experiment: Cryopreserved primary human hepatocytes (PHH) HBV infection assay, extracellular HBsAg by CLIA
Type: cell-based
Conditions: Hepatitis B virus, Hepatocyte, 216 h; HBV-infected cryopreserved PHH; extracellular HBsAg at 9 days post-compound treatment; 4 parameter logistic curve fit
Protocol: This assay is used to confirm the anti-HBV effect of the compounds in HBV PHH infection assay. Cryopreserved PHH (BioreclamationIVT, Lot YJM) was thawed at 37° C. and gently transferred into pre-warmed InVitroGRO HT medium (BioreclamationIVT, Cat. S03317). The mixture was centrifuged at 70 relative centrifugal force (RCF) for 3 min at RT, and the supernatant was discarded. Pre-warmed InVitroGRO CP medium (BioreclamationIVT, Cat #S03316) was added to the cell pellet to gently re-suspend cells. The cells were seeded at the density of 5.8×10^4 cells per well to collagen I coated 96-well plate (Gibco, Cat. A1142803) with the InVitroGRO CP medium. All plates were incubated at 37° C. with 5% CO2 and 85% humidity.
At 20 hrs after plating, the medium was changed to PHH culture medium (Dulbecco's Modified Eagle Medium (DMEM)/F12 (1:1) (Gibco, Cat. 11320-033), 10% fetal bovine serum (Gibco Cat. 10099141), 100 U/mL penicillin, 100 μg/mL streptomycin (Gibco, Cat. 151401-122), […] (Invitrogen Cat. PHG0311L), 20 ng/mL dexamethasone (Sigma, Cat. D4902) and 250 ng/mL human recombinant insulin (Gibco, Cat. 12585-014)). And the cells were incubated at 37° C. with 5% CO2 and 85% humidity for 4 hrs. The medium was then changed to pre-warmed PHH culture medium containing 4% polyethylene glycol (PEG) MW8000 (Sigma, Cat. P1458-50 ML) and 1% DMSO (Sigma, Cat. D2650). 5.8×10^6 genomic equivalents of HBV were added into the medium.
At 24 hrs post-infection, the cells were gently washed with PBS and refreshed with PHH culture medium supplemented with 1% DMSO, and 0.25 mg/mL Matrix gel (Corning, Cat. 356237) at 200 μL per well. All plates were immediately placed in at 37° C. CO2 incubator.
24 hrs later, serial dilutions of compounds made with DMSO were further diluted with the same culture medium (PHH culture medium supplemented with 1% DMSO and 0.25 mg/mL Matrix gel as described above) before they were added to the cells to reach desired final compound concentrations and 1% DMSO concentration. The medium containing the compounds were refreshed every three days.
At 9 days post-compound treatment, extracellular HBsAg level were measured with Chemiluminescence Immuno Assay (CLIA) kit (Autobio, HBsAg Quantitative CLIA).
HBsAg IC50 was derived from the dose-response curve using 4 parameter logistic curve fit method. The compounds of formula (I) have HBsAg IC50<20 μM, particularly <1 μM.

SMILES	IC50 [µM]
Nc1nc(NCc2cccc(C(F)(F)F)c2)c(C(=O)O)c(-c2ccco2)n1 [Example 38, 2-amino-4-(2-furyl)-6-[[3-(trifluoromethyl)phenyl]methylamino]pyrimidine-5-carboxylic Acid]	2.49
N#Cc1c(NCC2CCCCC2)ncnc1-c1ccco1 [Example 27, 4-(cyclohexylmethylamino)-6-(2-furyl)pyrimidine-5-carbonitrile]	6.83
N#Cc1c(NCCc2ccccc2)ncnc1-c1ccco1 [Example 28, 4-(2-furyl)-6-(2-phenylethylamino)pyrimidine-5-carbonitrile]	0.42
N#Cc1c(NCC(F)Cc2ccccc2Cl)nc(N)nc1-c1ccco1 (centres unmarked) [Example 4, 2-amino-4-[[3-(2-chlorophenyl)-2-fluoro-propyl]amino]-6-(2-furyl)pyrimidine-5-carbonitrile]	11.4
Nc1nc(NCc2ccccc2N)cc(-c2cccs2)n1 [Example 36, N4-[(2-aminophenyl)methyl]-6-(2-thienyl)pyrimidine-2,4-diamine]	6.62
N#Cc1c(NCC2(c3ccccc3)CCCC2)ncnc1-c1ccco1 [Example 30, 4-(2-furyl)-6-[(1-phenylcyclopentyl)methylamino]pyrimidine-5-carbonitrile]	9.06
N#Cc1c(NCC2CCCCC2)nc(N)nc1-c1ccco1 [Example 10, 2-amino-4-(cyclohexylmethylamino)-6-(2-furyl)pyrimidine-5-carbonitrile]	3.62
Cc1nc(NC2(c3ccccc3S(C)(=O)=O)CC2)c(C#N)c(-c2ccco2)n1 [Example 22, 4-(2-furyl)-2-methyl-6-[[1-(2-methylsulfonylphenyl)cyclopropyl]amino]pyrimidine-5-carbonitrile]	2.73
Cc1nc(NCc2ccccc2)c(C#N)c(-c2ccco2)n1 [Example 23, 4-(benzylamino)-6-(2-furyl)-2-methyl-pyrimidine-5-carbonitrile]	6.89
N#Cc1c(NCc2ccccc2)ncnc1-c1ccco1 [Example 25, 4-(benzylamino)-6-(2-furyl)pyrimidine-5-carbonitrile]	2.03
CCNc1nc(NCc2cccc(C(F)(F)F)c2)c(C#N)c(-c2ccco2)n1 [Example 14, 2-(ethylamino)-4-(2-furyl)-6-[[3-(trifluoromethyl)phenyl]methylamino]pyrimidine-5-carbonitrile]	2.76
CN(Cc1ccccc1)c1nc(N)nc(-c2ccco2)c1C(=O)O [Example 42, 2-amino-4-[benzyl(methyl)amino]-6-(2-furyl)pyrimidine-5-carboxylic Acid]	5.27
COc1c(NCc2cccc(C(F)(F)F)c2)nc(N)nc1-c1ccco1 [Example 35, 6-(2-furyl)-5-methoxy-N4-[[3-(trifluoromethyl)phenyl]methyl]pyrimidine-2,4-diamine]	7.85
CC(C)Oc1ccc(CNc2nc(N)nc(-c3ccco3)c2C#N)cc1Br [Example 2, 2-amino-4-[(3-bromo-4-isopropoxy-phenyl)methylamino]-6-(2-furyl)pyrimidine-5-carbonitrile]	3.28
COc1nc(NCc2cccc(C(F)(F)F)c2)c(C#N)c(-c2ccco2)n1 [Example 17, 4-(2-furyl)-2-methoxy-6-[[3-(trifluoromethyl)phenyl]methylamino]pyrimidine-5-carbonitrile]	3.35
CCOC(=O)c1c(NCc2c(Br)ccc(OC)c2OC)nc(N)nc1-c1ccco1 [Example 44, Ethyl 2-amino-4-[(6-bromo-2,3-dimethoxy-phenyl)methylamino]-6-(2-furyl)pyrimidine-5-carboxylate]	8.06
CCCCOc1nc(NCc2cccc(C(F)(F)F)c2)c(C#N)c(-c2ccco2)n1 [Example 19, 2-butoxy-4-(2-furyl)-6-[[3-(trifluoromethyl)phenyl]methylamino]pyrimidine-5-carbonitrile]	2.42
CCOC(=O)c1c(NCc2cccc(C(F)(F)F)c2)nc(SC)nc1-c1ccco1 [Example 45, Ethyl 4-(2-furyl)-2-methylsulfanyl-6-[[3-(trifluoromethyl)phenyl]methylamino]pyrimidine-5-carboxylate]	8.16
N#Cc1c(NCc2ccccc2N)ncnc1-c1ccco1 [Example 31, 4-[(2-aminophenyl)methylamino]-6-(2-furyl)pyrimidine-5-carbonitrile]	0.27
CCOC(=O)c1c(NCc2ccccc2Cl)ncnc1-c1ccco1 [Example 57, Ethyl 4-[(2-chlorophenyl)methylamino]-6-(2-furyl)pyrimidine-5-carboxylate]	4.26
COc1ccc(Br)c(CNc2nc(C)nc(-c3ccco3)c2C#N)c1OC [Example 20, 4-[(6-bromo-2,3-dimethoxy-phenyl)methylamino]-6-(2-furyl)-2-methyl-pyrimidine-5-carbonitrile]	2.66
Nc1nc(NCc2cccc(C(F)(F)F)c2)c(C(=O)N2CCOCC2)c(-c2ccco2)n1 [Example 55, [2-amino-4-(2-furyl)-6-[[3-(trifluoromethyl)phenyl]methylamino]pyrimidin-5-yl]-morpholino-methanone]	10.1
O=C(O)c1c(NCc2cccc(C(F)(F)F)c2)nc(N2CC3(CCC3)C2)nc1-c1ccco1 [Example 48, 2-(2-azaspiro[3.3]heptan-2-yl)-4-(2-furyl)-6-[[3-(trifluoromethyl)phenyl]methylamino]pyrimidine-5-carboxylic Acid]	6.37
CCOC(=O)c1c(NCc2c(Br)ccc(OC)c2OC)nc(C(C)C)nc1-c1ccco1 [Example 62, Ethyl 4-[(6-bromo-2,3-dimethoxy-phenyl)methylamino]-6-(2-furyl)-2-isopropyl-pyrimidine-5-carboxylate]	10.2
CCOC(=O)c1c(NCc2cccc(C(F)(F)F)c2)nc(C)nc1-c1ccco1 [Example 61, Ethyl 4-(2-furyl)-2-methyl-6-[[3-(trifluoromethyl)phenyl]methylamino]pyrimidine-5-carboxylate]	7.38
Cc1nc(NCc2ccc(OC(C)C)c(Br)c2)c(C#N)c(-c2ccco2)n1 [Example 21, 4-[(3-bromo-4-isopropoxy-phenyl)methylamino]-6-(2-furyl)-2-methyl-pyrimidine-5-carbonitrile]	6.66
CN(C)c1nc(NCc2cccc(C(F)(F)F)c2)c(C#N)c(-c2ccco2)n1 [Example 16, 2-(dimethylamino)-4-(2-furyl)-6-[[3-(trifluoromethyl)phenyl]methylamino]pyrimidine-5-carbonitrile]	6.75
CN(C)c1nc(NCc2ccccc2N)cc(-c2ccco2)n1 [Example 33, N4-[(2-aminophenyl)methyl]-6-(2-furyl)-N2,N2-dimethyl-pyrimidine-2,4-diamine]	7.58
CC(C)CNc1ncnc(-c2ccco2)c1C#N [Example 26, 4-(2-furyl)-6-(isobutylamino)pyrimidine-5-carbonitrile]	5.7
